The values below come from US5276058A, “3,4-dihydroxychalcone derivatives” (Nippon Hypox Laboratories Incorporated, priority 1993, dated 1994).

By IC50 is commonly meant the point on the concentration scale where inhibition reaches its midpoint. The low end stands for higher potency, the high end for lower potency.

The test system of experiment [1] is ear swelling induced by arachidonic acid. Nature of the experiment: topical anti-inflammatory activity test (arachidonic acid-induced ear swelling). It is filed as in vivo, male ICR mice. Conditions: Mus musculus, 1 hour before 1 mg arachidonic acid, read-out: Ratio of inhibition of ear swelling induced by arachidonic acid; for inhibition in vivo at 30 µg/ear: 30 μg/ear; for inhibition in vivo at 100 µg/ear: 100 μg/ear; for inhibition in vivo at 10 µg/ear: 10 μg/ear. The protocol:
The 3,4-dihydroxychalcone derivatives shown in Table 9, as test compounds, were subjected to the following topical anti-inflammatory activity test.
Acetone solutions were prepared from the test compounds. Then, the acetone solution were applied to the right ears of male ICR mice such that the dose of each test compound was 10 μg/ear, 30 μg/ear of 100 μg/ear. One hour after the application, 1 mg of arachidonic acid was applied to each right ear to cause ear swelling.
One hour after the application of the arachidonic acid, the mice were sacrificed by vertebral cervical dislocation, and the right and left ears were taken and separately weighed. The weight of the right ear to which the arachidonic acid had been applied was divided by the weight of the non-treated left ear to obtain a swelling ratio.
The effect of each test compound was shown in the following manner. The relative values of the swelling ratios of individual mice were calculated on an assumption that the average value of the swelling ratios of the solvent control group was taken as 100, and amounts of their decreases were expressed by percentages (inhibition ratios).

Another experiment concerns the target T1, cyclooxygenase (Ovis aries, UniProt P05979).
T1 construct: containing sheep seminal vesicle; from tissue; host or cells: sheep seminal vesicle
T1 sequence (P05979 25-600): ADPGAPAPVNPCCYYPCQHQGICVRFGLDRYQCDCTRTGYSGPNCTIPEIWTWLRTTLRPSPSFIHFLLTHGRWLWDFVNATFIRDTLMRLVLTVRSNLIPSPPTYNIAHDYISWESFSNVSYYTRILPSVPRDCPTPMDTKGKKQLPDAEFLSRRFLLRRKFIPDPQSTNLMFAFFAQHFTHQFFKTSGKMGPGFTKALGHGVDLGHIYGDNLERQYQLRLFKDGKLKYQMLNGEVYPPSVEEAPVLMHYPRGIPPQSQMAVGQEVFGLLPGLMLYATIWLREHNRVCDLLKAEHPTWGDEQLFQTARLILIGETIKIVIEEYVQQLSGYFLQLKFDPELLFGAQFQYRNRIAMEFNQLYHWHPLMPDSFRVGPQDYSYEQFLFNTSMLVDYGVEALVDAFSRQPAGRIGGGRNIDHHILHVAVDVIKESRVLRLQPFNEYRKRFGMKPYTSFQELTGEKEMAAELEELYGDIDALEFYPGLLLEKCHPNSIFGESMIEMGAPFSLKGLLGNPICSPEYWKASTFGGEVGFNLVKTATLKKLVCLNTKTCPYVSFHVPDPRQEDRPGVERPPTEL
Nature of the experiment: cyclooxygenase inhibiting activity test. Conditions: sheep seminal vesicle, pH 7.4, prostaglandin E2 formation. The format is biochemical. As to the method: A 50 mM phosphoric acid buffer solution (pH 7.4) containing sheep seminal vesicle, 2 mM of glutathione, 0.6 mM of epinephrine and 80 μM of EDTA-2Na preheated at 37° C. for 2 minutes, and then ^14 C-arachidonic acid was added to the reaction mixture. The mixture was heated for 10 minutes to form prostaglandin E2, and the radiation activity of the formed prostaglandin E2 was taken as cyclooxygenase activity. The 3,4-dihydroxychalcone derivatives shown in Table 10 were selected as test compounds. The cyclooxygenase inhibiting activity of each test compound was evaluated as follows. Each test compound was independently added to the above phosphoric acid buffer solution, and the radiation activity of the formed prostaglandin E2 was measured in the same manner as above. The inhibition ratio of each test compound was determined in comparison with that of the control group, and the value of IC50 was calculated by a conventional method.

In experiment [2] the test system is enzymes which are to cause inflammation. Conditions: in vitro; PROSTAGLADINSS (1985, 30 (3) 357); cited from earlier work.
A further experiment concerns the target T2, 5-lipoxygenase (Rattus norvegicus, UniProt P12527).
T2 construct: endogenous in cells; host or cells: RBL-1 cell homogenate
T2 sequence (P12527 1-673): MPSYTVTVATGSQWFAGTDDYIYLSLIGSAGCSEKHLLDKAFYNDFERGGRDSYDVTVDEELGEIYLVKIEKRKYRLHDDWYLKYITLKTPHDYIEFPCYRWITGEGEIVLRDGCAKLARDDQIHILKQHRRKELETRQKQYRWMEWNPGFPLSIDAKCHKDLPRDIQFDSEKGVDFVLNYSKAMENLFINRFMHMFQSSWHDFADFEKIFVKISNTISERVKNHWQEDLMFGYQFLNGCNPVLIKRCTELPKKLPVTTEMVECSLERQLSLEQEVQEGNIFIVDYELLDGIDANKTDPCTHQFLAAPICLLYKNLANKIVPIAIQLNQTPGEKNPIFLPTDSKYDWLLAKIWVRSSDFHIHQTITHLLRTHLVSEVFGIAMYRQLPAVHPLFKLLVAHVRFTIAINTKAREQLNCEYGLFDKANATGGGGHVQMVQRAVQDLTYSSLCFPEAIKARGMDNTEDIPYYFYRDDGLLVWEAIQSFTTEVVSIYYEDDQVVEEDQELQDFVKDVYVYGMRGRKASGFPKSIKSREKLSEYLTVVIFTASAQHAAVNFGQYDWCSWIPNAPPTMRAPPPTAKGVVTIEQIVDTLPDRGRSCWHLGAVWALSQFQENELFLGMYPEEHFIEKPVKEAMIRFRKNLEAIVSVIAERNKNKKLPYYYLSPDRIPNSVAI
Nature of the experiment: 5-lipoxygenase inhibiting activity test (RBL-1 cell homogenate). The format is biochemical. The note with it: pH 7.4, 37° C., 5-HETE formation. The protocol:
RBL-1 cell homogenate was suspended in a 50 mM phosphoric acid buffer solution (pH 7.4) containing 2 mM of CaCl2, 0.25 mM of sucrose, 1 mM of EDTA-2Na and glutathione, and the mixture was heated to 37° C. Arachidonic acid was added to the mixture to form 5-HETE (5-hydroxyeicosatetraenonic acid), and the 5-HETE was measured for an amount by a high-performance liquid chromatography.
The 3,4-dihydroxychalcone derivatives shown in Table 11 were selected as test compounds. The 5-lipoxygenase inhibiting activity of each test compound was evaluated as follows. Each test compound was independently added to the above phosphoric acid buffer solution, and the 5-HETE amount was measured in the same manner as above. The inhibition ratio of each test compound was determined in comparison with that of the control group, and the value of IC50 was calculated by a conventional method.

The conditions of experiment [3]: Food Chemistry (1983, 12) 205-212; cited from earlier work.

Take `COc1ccc(C)cc1C(=O)C=Cc1ccc(O)c(O)c1` [Example 11]: the inhibition in vivo at 30 µg/ear in experiment [1] is 32%. The compound also gave an IC50 against cyclooxygenase of 29.7 µM.

With `COc1cc(C(=O)C=Cc2ccc(O)c(O)c2)cc(OC)c1OC` [Example 30], the inhibition in vivo at 30 µg/ear in experiment [1] was 65%.

Turning to `Cc1cccc(C(=O)C=Cc2ccc(O)c(O)c2)c1` [Example 17], in experiment [1], the inhibition in vivo at 30 µg/ear is 28% and the inhibition in vivo at 100 µg/ear was determined as 38%. The IC50 against cyclooxygenase amounted to 71 µM.

For the compound `CCCCOc1ccc(O)c(C(=O)C=Cc2ccc(O)c(O)c2)c1` [Example 9], the inhibition in vivo at 30 µg/ear in experiment [1] amounted to 31%.

For the compound `Cc1ccc(C)c(C(=O)C=Cc2ccc(O)c(O)c2)c1` [Example 26], the inhibition in vivo at 30 µg/ear in experiment [1] is 58%. This compound also had an IC50 at cyclooxygenase of 43.7 µM.

As for `COc1ccc(C(=O)C=Cc2ccc(O)c(O)c2)c(O)c1` [Example 4], in experiment [1], the inhibition in vivo at 30 µg/ear worked out at 35%. The same compound came in with an IC50 against cyclooxygenase of 64.8 µM.

For the compound `COc1cccc(OC)c1C(=O)C=Cc1ccc(O)c(O)c1` [Example 12], in experiment [1], the inhibition in vivo at 30 µg/ear is 8%.

For `O=C(/C=C/c1ccc(O)c(O)c1)c1ccc(O)cc1O` [2',4',3,4-tetrahydroxychalcone], the “inhibiting activity against enzymes which are to cause inflammation” value (“inhibiting activity” below) in experiment [2] was “inhibiting activity against enzymes which are to cause inflammation”.

As to `Cc1ccc(C(=O)C=Cc2ccc(O)c(O)c2)cc1` [Example 18], in experiment [1], the inhibition in vivo at 30 µg/ear was found to be 27%. At cyclooxygenase, this compound came in with an IC50 of 210 µM.

Turning to `COc1cccc(C(=O)C=Cc2ccc(O)c(O)c2)c1` [Example 20], in experiment [1], the inhibition in vivo at 30 µg/ear worked out at 58%. The same compound yielded an IC50 against cyclooxygenase of 15.1 µM.

As to `COc1ccc(C(=O)C=Cc2ccc(O)c(O)c2)cc1` [Example 21], in experiment [1], the inhibition in vivo at 10 µg/ear worked out at 45%. The IC50 on cyclooxygenase turned out to be 488 µM.

Turning to `COc1ccc(C(=O)C=Cc2ccc(O)c(O)c2)cc1OC` [Example 29], the inhibition in vivo at 30 µg/ear in experiment [1] stood at 38%. The compound further gave an IC50 against cyclooxygenase of 829 µM.

`CCOc1ccc(OCC)c(C(=O)C=Cc2ccc(O)c(O)c2)c1` [Example 16]: in experiment [1], the inhibition in vivo at 10 µg/ear turned out to be 7%. Besides, half-maximal inhibition against cyclooxygenase (IC50) was put at 24.4 µM.

As for `COc1ccccc1C(=O)C=Cc1ccc(O)c(O)c1` [Example 19], the inhibition in vivo at 30 µg/ear in experiment [1] amounted to 42%. This compound also yielded a 50% inhibitory concentration (IC50) at cyclooxygenase of 35.3 µM.

`CC(C)Oc1ccc(O)c(C(=O)C=Cc2ccc(O)c(O)c2)c1` [Example 8]: the inhibition in vivo at 30 µg/ear in experiment [1] was 67%.

On to `COc1ccc(C(=O)C=Cc2ccc(O)c(O)c2)c(OC)c1` [Example 2], for which the inhibition in vivo at 30 µg/ear in experiment [1] was determined as 56%. The compound also showed a 50% inhibitory concentration (IC50) against cyclooxygenase of 156 µM.

In the case of `Cc1ccc(C(=O)C=Cc2ccc(O)c(O)c2)c(C)c1` [Example 25], in experiment [1], the inhibition in vivo at 30 µg/ear worked out at 43%. Also, 40.5 µM corresponded to half-maximal inhibition against cyclooxygenase (IC50).

`Cc1ccc(O)c(C(=O)C=Cc2ccc(O)c(O)c2)c1` [Example 5]: in experiment [1], the inhibition in vivo at 10 µg/ear is 31% and the inhibition in vivo at 30 µg/ear worked out at 52%. Also, at cyclooxygenase, 121 µM corresponded to half-maximal inhibition (IC50).

As to `CCOc1ccc(OC)c(C(=O)C=Cc2ccc(O)c(O)c2)c1` [Example 13], in experiment [1], the inhibition in vivo at 30 µg/ear came to 13%. For the same compound, at cyclooxygenase, the IC50 stood at 26 µM.

For the compound `Cc1cc(C)c(C(=O)C=Cc2ccc(O)c(O)c2)c(C)c1` [Example 27], in experiment [1], the inhibition in vivo at 30 µg/ear stood at 47%. Also, the IC50 on cyclooxygenase is 275 µM.

Take `COc1ccc(OC)c(C(=O)/C=C/c2ccc(O)c(O)c2)c1` [Example 1, 2',5'-dimethoxy-3,4-dihydroxychalcone]: in experiment [1], the inhibition in vivo at 30 µg/ear is 77%. Further, the 50% inhibitory concentration (IC50) was found to be 17.1 µM at cyclooxygenase and 0.0078 µM at 5-lipoxygenase.

On to `CN(C)c1ccc(C(=O)C=Cc2ccc(O)c(O)c2)cc1` [Example 24], for which the inhibition in vivo at 30 µg/ear in experiment [1] turned out to be 21%. Besides, on cyclooxygenase, it took 808 µM to reach half-maximal inhibition (IC50).

With `CC(C)Oc1ccc(C(=O)C=Cc2ccc(O)c(O)c2)cc1` [Example 22], the inhibition in vivo at 30 µg/ear in experiment [1] worked out at 5%.

On to `CC(C)c1ccc(O)c(C(=O)C=Cc2ccc(O)c(O)c2)c1` [Example 7], for which the inhibition in vivo at 30 µg/ear in experiment [1] was 9%. Besides, on cyclooxygenase, the midpoint of inhibition, the IC50, lay at 37.3 µM.

As to `O=C(/C=C/c1ccc(O)c(O)c1)c1ccccc1O` [2',3,4-trihydroxychalcone], in experiment [2], the “inhibiting activity” value is on record as “inhibiting activity against enzymes which are to cause inflammation”.

Regarding `COc1ccc(OC(C)C)cc1C(=O)C=Cc1ccc(O)c(O)c1` [Example 14], the inhibition in vivo at 30 µg/ear in experiment [1] was 33%. The compound further displayed an IC50 at cyclooxygenase of 59.9 µM.

With `CCOc1ccc(O)c(C(=O)C=Cc2ccc(O)c(O)c2)c1` [Example 10], the inhibition in vivo at 30 µg/ear in experiment [1] came out at 43%. This compound gave a 50% inhibitory concentration (IC50) against cyclooxygenase of 129 µM.

With `COc1cc(C(=O)C=Cc2ccc(O)c(O)c2)ccc1O` [Example 28], the inhibition in vivo at 30 µg/ear in experiment [1] turned out to be 47%.

As to `O=C(/C=C/c1ccc(O)c(O)c1)c1ccc(O)cc1` [4',3,4-trihydroxychalcone], the “inhibiting activity” value in experiment [2] is on record as “inhibiting activity against enzymes which are to cause inflammation”.

Take `CN(C)c1cccc(C(=O)C=Cc2ccc(O)c(O)c2)c1` [Example 23]: the inhibition in vivo at 30 µg/ear in experiment [1] stood at 19%. Besides, it took 40.6 µM to reach half-maximal inhibition against cyclooxygenase (IC50).

As to `O=C(/C=C/c1ccc(O)c(O)c1)c1ccccc1` [3,4-dihydroxychalcone], the “activity to inhibit the oxidation of edible oils” value in experiment [3] was “activity to inhibit the oxidation of edible oils”. The “inhibiting activity” value in experiment [2] is on record as “inhibiting activity against enzymes which are to cause inflammation”.

As to `COc1ccc(O)c(C(=O)C=Cc2ccc(O)c(O)c2)c1` [Example 6], in experiment [1], the inhibition in vivo at 10 µg/ear stood at 7.6%, the inhibition in vivo at 30 µg/ear amounted to 38% and the inhibition in vivo at 100 µg/ear is 43%. In addition, the IC50 against cyclooxygenase is 41.3 µM.

For the compound `O=C(C=Cc1ccc(O)c(O)c1)c1cc(O)ccc1O` [Example 3], the inhibition in vivo at 30 µg/ear in experiment [1] is 39%. The compound also came in with an IC50 against cyclooxygenase of 169 µM.

Turning to `CCOc1ccc(OC)cc1C(=O)C=Cc1ccc(O)c(O)c1` [Example 15], the inhibition in vivo at 30 µg/ear in experiment [1] came to 7.4%. Besides, the half-maximal inhibitory concentration (IC50) on cyclooxygenase is 3.2 µM.
